Laboratory results reported in patent US9556180B2, “Pyrazolo[3,4-d]pyrimidinone compounds as inhibitors of the P53/MDM2 interaction” (Novartis AG, priority 2013, dated 2017).

How the values were obtained:
[1] = target: T1, p53-MDM4 interaction (human MDM4 protein, amino acids 2-185) (Homo sapiens, UniProt O15151); test: p53-MDM4 Assay 1: TR-FRET inhibition of p53-MDM4 interaction; format: binding; settings: 2.5 nM MDM4-biotinylated, 10 nM Cy5-p53 peptide
T1 construct: human MDM4 protein (amino acids 2-185); made in house
T1 sequence (O15151 2-185): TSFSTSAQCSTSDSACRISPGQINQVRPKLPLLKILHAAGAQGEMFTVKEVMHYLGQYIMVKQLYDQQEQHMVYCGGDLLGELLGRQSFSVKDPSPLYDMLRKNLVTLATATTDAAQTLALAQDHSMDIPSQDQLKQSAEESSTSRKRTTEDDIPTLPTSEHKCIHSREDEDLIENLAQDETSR
Description: (§1) Time Resolved Fluorescence Energy Transfer (TR-FRET) Assay
(§2) The inhibition of p53-MDM2 and p53-MDM4 interactions is measured by time resolved fluorescence energy transfer (TR-FRET). Fluorescence energy transfer (or Foerster resonance energy transfer) describes an energy transfer between donor and acceptor fluorescent molecules. For this assay, human MDM2 protein (amino acids 2-188) and human MDM4 protein (amino acids 2-185), tagged with a C-terminal biotin moiety, are used in combination with a Europium labeled streptavidin (Perkin Elmer, Inc., Waltham, Mass., USA) serving as the donor fluorophore. The p53 derived, Cy5 labeled peptide Cy5-TFSDLWKLL (p53 aa18-26) is the energy acceptor. Upon excitation of the donor molecule at 340 nm, binding interaction between MDM2 or MDM4 and the p53 peptide induces energy transfer and enhanced response at the acceptor emission wavelength at 665 nm. Disruption of the formation of the p53-MDM2 or p53-MDM4 complex due to an inhibitor molecule binding to the p53 binding site of MDM2 or MDM4 results in increased donor emission at 620 nm. The ratiometric FRET assay readout is calculated from the raw data of the two distinct fluorescence signals measured in time resolved mode (fluorescence 665 nm/fluorescence 620 nm×1000).
(§3) After addition of 1.25 nM MDM2-biotinylated or 2.5 nM MDM4-biotinylated (internal preparations, both MDM2 and MDM4 are biotinylated at the C-terminal of the peptide construct), and 0.625 nM Europium labeled streptavidin (Perkin Elmer), the solution is pre-incubated for 15 minutes at room temperature, then 10 nM Cy5-p53 peptide (internal preparation, the Cy5 dye is directly bound to the N-terminal part of p53 peptide construct) is added before an incubation at room temperature for 15 minutes prior to reading the plate. For measurement of samples, a Victor II microplate reader (Perkin Elmer) is used with the following settings: Excitation 340 nm, Emission Donor 620 nm and Emission Acceptor 665 nm. IC50 values are calculated by curve fitting using XLfit. If not specified, reagents are purchased from Sigma-Aldrich Chemie GmBH, Buchs, Switzerland.
(§4) This assay was used to evaluate compounds displaying inhibition of p53-MDM2 interaction and p53-MDM4 interaction at IC50s of 0.005 to 50 μM (p53-MDM2 Assay 1 and p53-MDM4 Assay 1, respectively). For selected compounds displaying IC50s between […] on MDM2, a slightly modified assay is used with the following adaptations: 0.1 nM MDM2, 0.1 nM Europium labeled streptavidin and Tecan genios Pro is used as a microplate reader for the fluorescence measurements (p53-MDM2 Assay 2).

[2] = target: T2, p53-MDM2 interaction (human MDM2 protein, amino acids 2-188) (Homo sapiens, UniProt Q00987); test: p53-MDM2 Assay 1: TR-FRET inhibition of p53-MDM2 interaction; format: binding; settings: 1.25 nM MDM2-biotinylated, 10 nM Cy5-p53 peptide
T2 construct: human MDM2 protein (amino acids 2-188); made in house
Description: as §1, §2, §3, §4

[3] = target: T2, p53-MDM2 interaction (human MDM2 protein, amino acids 2-188); test: p53-MDM2 Assay 2: slightly modified TR-FRET assay; format: binding; settings: 0.1 nM MDM2, 0.1 nM Europium labeled streptavidin, Tecan genios Pro reader
Description: as §1, §2, §3, §4

T2 sequence (Q00987 2-188): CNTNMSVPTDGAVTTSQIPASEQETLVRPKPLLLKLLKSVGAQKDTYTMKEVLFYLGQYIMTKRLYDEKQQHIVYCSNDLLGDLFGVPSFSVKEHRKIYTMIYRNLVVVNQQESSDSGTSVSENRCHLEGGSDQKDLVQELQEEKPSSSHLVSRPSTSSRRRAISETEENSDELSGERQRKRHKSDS

| Structure (SMILES) | IC50 [1] | IC50 [2] | IC50 [3] | melting point |
| --- | --- | --- | --- | --- |
| COc1ccccc1-n1nc2c(c1C(C)C)C(c1ccc(Cl)cc1C)N(c1cccc(Cl)c1F)C(=O)N2 (centres unmarked) [Example 5, 5-(3-Chloro-2-fluoro-phenyl)-4-(4-chloro-2-methyl-phenyl)-3-isopropyl-2-(2-methoxy-phenyl)-2,4,5,7-tetrahydro-pyrazolo[3,4-d]pyrimidin-6-one] | 1710 nM | 1.45 nM |  | 140 to 143 °C |
| Cc1cc(Cl)ccc1C1c2c(nn(Cc3ccccn3)c2C(C)C)NC(=O)N1c1cccc(Cl)c1F (centres unmarked) [Example 8, 5-(3-Chloro-2-fluoro-phenyl)-4-(4-chloro-2-methyl-phenyl)-3-isopropyl-2-pyridin-2-ylmethyl-2,4,5,7-tetrahydro-pyrazolo[3,4-d]pyrimidin-6-one] | 8200 nM | 3.2 nM |  | 150 to 153 °C |
| COc1ccccc1-n1nc2c(c1C(C)C)C(c1ccc(Cl)cc1C)N(c1cc(Cl)c(=O)n(C)c1)C(=O)N2 (centres unmarked) [Example 15, 5-(5-Chloro-1-methyl-6-oxo-1,6-dihydro-pyridin-3-yl)-4-(4-chloro-2-methyl-phenyl)-3-isopropyl-2-(2-methoxy-phenyl)-2,4,5,7-tetrahydro-pyrazolo[3,4-d]pyrimidin-6-one] | 1550 nM | 1.45 nM | 0.18 nM |  |
| CCn1cc(N2C(=O)Nc3nn(-c4ccccc4OC)c(C(C)C)c3C2c2ccc(Cl)cc2)cc(Cl)c1=O (centres unmarked) [Example 14, 5-(5-Chloro-1-ethyl-6-oxo-1,6-dihydro-pyridin-3-yl)-4-(4-chloro-phenyl)-3-isopropyl-2-(2-methoxy-phenyl)-2,4,5,7-tetrahydro-pyrazolo[3,4-d]pyrimidin-6-one] | 1480 nM | 1.5 nM | 0.33 nM |  |
| Cc1cc(Cl)ccc1C1c2c(nn(Cc3ccccc3)c2C(C)C)NC(=O)N1c1cc(Cl)ccc1C (centres unmarked) [Example 11, 2-Benzyl-4-(4-chloro-2-methyl-phenyl)-5-(5-chloro-2-methyl-phenyl)-3-isopropyl-2,4,5,7-tetrahydro-pyrazolo[3,4-d]pyrimidin-6-one] |  | 3.5 nM |  | 105 to 107 °C |
| COc1ccccc1-n1nc2c(c1C(C)C)C(c1ccc(Cl)cc1)N(c1cc(Cl)c(=O)n(CCN(C)C)c1)C(=O)N2 (centres unmarked) [Example 22, 5-[5-Chloro-1-(2-dimethylamino-ethyl)-6-oxo-1,6-dihydro-pyridin-3-yl]-4-(4-chloro-phenyl)-3-isopropyl-2-(2-methoxy-phenyl)-2,4,5,7-tetrahydro-pyrazolo[3,4-d]pyrimidin-6-one] | 6230 nM | 2.7 nM | 1.43 nM |  |

More lines, in order of falling IC50 [2], values ahead:

| IC50 [1] | IC50 [2] | IC50 [3] | melting point | Structure (SMILES) |
| --- | --- | --- | --- | --- |
| 78800 nM | 3.5 nM |  | 81 to 83 °C | CC(C)=CCn1nc2c(c1C(C)C)C(c1ccc(Cl)cc1C)N(c1cccc(Cl)c1F)C(=O)N2 (centres unmarked) [Example 4, 5-(3-chloro-2-fluorophenyl)-4-(4-chloro-2-methylphenyl) -3-isopropyl-2-(3-methylbut-2-en-1-yl)-4,5-dihydro-2H-pyrazolo[3,4-d]pyrimidin-6(7H)-one] |
| 2180 nM | 1.6 nM | 0.25 nM |  | COc1ccccc1-n1nc2c(c1C(C)C)C(c1ccc(Cl)cc1)N(c1cc(Cl)c(=O)n(C)c1)C(=O)N2 (centres unmarked) [Example 13, 5-(5-Chloro-1-methyl-6-oxo-1,6-dihydro-pyridin-3-yl)-4-(4-chloro-phenyl)-3-isopropyl-2-(2-methoxy-phenyl)-2,4,5,7-tetrahydro-pyrazolo[3,4-d]pyrimidin-6-one] |
| 2370 nM | 1.6 nM | 0.56 nM |  | COc1ccccc1-n1nc2c(c1C(C)C)C(c1ccc(Cl)cc1)N(c1cc(Cl)c(=O)n(CCO)c1)C(=O)N2 (centres unmarked) [Example 18, 5-[5-Chloro-1-(2-hydroxy-ethyl)-6-oxo-1,6-dihydro-pyridin-3-yl]-4-(4-chloro-phenyl)-3-isopropyl-2-(2-methoxy-phenyl)-2,4,5,7-tetrahydro-pyrazolo[3,4-d]pyrimidin-6-one] |
| 1630 nM | 1.4 nM | 0.19 nM |  | CCn1cc(N2C(=O)Nc3nn(-c4ccccc4OC)c(C(C)C)c3C2c2ccc(Cl)cc2C)cc(Cl)c1=O (centres unmarked) [Example 21, 5-(5-Chloro-1-ethyl-6-oxo-1,6-dihydropyridin-3-yl)-4-(4-chloro-2-methylphenyl)-3-isopropyl-2-(2-methoxyphenyl)-4,5-dihydro-2H -pyrazolo[3,4-d]pyrimidin-6(7H)-one] |
| 1350 nM | 1.3 nM | 0.17 nM |  | COCCn1cc(N2C(=O)Nc3nn(-c4ccccc4OC)c(C(C)C)c3C2c2ccc(Cl)cc2C)cc(Cl)c1=O (centres unmarked) [Example 19, 5-[5-Chloro-1-(2-methoxy-ethyl)-6-oxo-1,6-dihydro-pyridin-3-yl]-4-(4-chloro-2-methyl-phenyl)-3-isopropyl-2-(2-methoxy-phenyl)-2,4,5,7-tetrahydro-pyrazolo[3,4-d]pyrimidin-6-one] |
| 4700 nM | 1.1 nM | 0.21 nM |  | COc1ccccc1-n1nc2c(c1C(C)C)C(c1ccc(Cl)cc1C)N(c1cc(Cl)ccc1C)C(=O)N2 (centres unmarked) [Example 10, 4-(4-Chloro-2-methyl-phenyl)-5-(5-chloro-2-methyl-phenyl)-3-isopropyl-2-(2-methoxy-phenyl)-2,4,5,7-tetrahydro-pyrazolo[3,4-d]pyrimidin-6-one] |
| 2760 nM | 0.7 nM | 0.42 nM |  | COc1ccccc1-n1nc2c(c1C(C)C)[C@H](c1ccc(Cl)cc1C)N(c1cccc(Cl)c1F)C(=O)N2 [Example 6, (S)-5-(3-Chloro-2-fluoro-phenyl)-4-(4-chloro-2-methyl-phenyl)-3-isopropyl-2-(2-methoxy-phenyl)-2,4,5,7-tetrahydro-pyrazolo[3,4-d]pyrimidin-6-one] |
